Reference: patent US20070054884A1 (priority 2005, published 2007)
In brackets after ≈: the same amount, converted by molar mass.

Key:
B.anthracis V770-NR1-R = experiment: microbe, parasite or virus in culture; assay type: cell-based; details: Bacillus anthracis, V770NR1R, read-out: MIC B.anthracis V770-NR1-R
S. aureus 29213 = experiment: Minimum Inhibitory Concentration (MIC), broth dilution method; assay type: cell-based; details: Staphylococcus aureus, 29213, read-out: MIC S. aureus 29213
Protocol: (§1) Minimum Inhibitory Concentration (MIC), Broth Dilution Method:
(§2) The compounds of the present invention were tested against selected Gram positive and Gram negative organisms using standard microtitration techniques well known to those skilled in the art. Cultures of bacteria were initially applied by streaking a loopful onto agar plates under the appropriate conditions. For example, bacterial stocks are streaked for isolation of single colonies onto chocolate agar and then incubated for 18 hours at 35-37° C. in a 5% CO2 incubator. Five to ten colonies were picked from the chocolate agar plate for subculture to Brain-Heart infusion (BHI) broth, Mueller Hinton broth, or BHI containing 4% serum, and incubated under the appropriate conditions. The ability of the test compound to act as an antimicrobial was determined by the ability of dilutions of the test substance to inhibit bacterial growth in vitro. The optical density of the culture of organisms in the presence of an active compound was compared to the optical density of the same organism grown without test compound. The activity of the compounds is described as either negative or the lowest concentration inhibiting growth (Minimum Inhibitory Concentration [MIC]).
(§3) The activity of selected compounds of the present invention against representative Gram positive and Gram negative bacteria are shown in the following Table 1.

S. pneumoniae 11733 = experiment: as above; assay type: cell-based; details: Streptococcus pneumoniae, 11733, read-out: MIC S. pneumoniae 11733
Protocol: as §1, §2, §3

B. cereus = experiment: as above; assay type: cell-based; details: Bacillus cereus, read-out: MIC B. cereus
Protocol: as §1, §2, §3

SMILES	melting point [°C]	MIC (B.anthracis V770-NR1-R) [µg/mL]	MIC (S. aureus 29213) [µg/mL]	MIC (S. pneumoniae 11733) [µg/mL]	MIC (B. cereus) [µg/mL]
N#Cc1cc(Cl)ccc1Oc1cc(N2CCOCC2)c(F)cc1O	149 to 151	–	–	–	–
O=C(O)c1cc(Oc2ccc(Cl)cc2Cl)c(O)cc1Cl	192 to 196	–	–	–	–
Oc1cc(Cl)c(N2CCOCC2)cc1Oc1ccc(Cl)cc1Cl [Example 1, 5-Chloro-2-(2,4-dichlorophenoxy)-4-morpholin-4-yl-phenol]	187 to 188	1600 (≈ 4270 µM)	500 (≈ 1330 µM)	1000 (≈ 2670 µM)	800 (≈ 2140 µM)
CN1CCN(c2cc(Oc3ccc(Cl)cc3Cl)c(O)cc2Cl)CC1 [Example 2, 5-Chloro-2-(2,4-dichloro-phenoxy)-4-(4-methyl-piperazin-1-yl)-phenol]	–	> 25000	60 (≈ 155 µM)	250 (≈ 645 µM)	> 25000
Oc1cc(Cl)c(-c2cccs2)cc1Oc1ccc(Cl)cc1Cl [Example 3, 5-Chloro-2-(2,4-dichloro-phenoxy)-4-thiophen-2-yl-phenol]	–	50 (≈ 135 µM)	60 (≈ 161 µM)	10 (≈ 26.9 µM)	50 (≈ 135 µM)
Oc1cc(Cl)c(-c2ccco2)cc1Oc1ccc(Cl)cc1Cl [Example 4, 5-Chloro-2-(2,4-dichloro-phenoxy)-4-furan-2-yl-phenol]	–	–	500 (≈ 1410 µM)	500 (≈ 1410 µM)	–
Oc1cc(Cl)c(-c2ccsc2)cc1Oc1ccc(Cl)cc1Cl [Example 5, 5-Chloro-2-(2,4-dichloro-phenoxy)-4-thiophen-3-yl-phenol]	–	400 (≈ 1080 µM)	130 (≈ 350 µM)	10 (≈ 26.9 µM)	200 (≈ 538 µM)
OB(O)c1cc(Oc2ccc(Cl)cc2Cl)c(O)cc1Cl [Example 6, 2-Chloro-5-(2,4-dichloro-phenoxy)-4-hydroxy-phenylboronic acid]	180 to 183	–	500 (≈ 1500 µM)	–	–
CCOC(=O)NC(=S)Nc1ccc(O)c(Oc2ccccc2O)c1 [Example 9, 1-[4-Hydroxy-3-(2-hydroxy-phenoxy)-phenyl]-3-(ethylozycarbonyl)thiourea]	–	3100 (≈ 8900 µM)	31300 (≈ 89800 µM)	62500 (≈ 179000 µM)	12500 (≈ 35900 µM)
COc1ccc(NC(=S)Nc2cc(Oc3ccc(Cl)cc3Cl)c(O)cc2Cl)cc1 [Example 11, 1-[2-Chloro-5-(2,4-dichloro-phenoxy)-4-hydroxy-phenyl]-3-(4-methoxy-phenyl)-thiourea]	–	–	7900 (≈ 16800 µM)	31300 (≈ 66600 µM)	–
Oc1cc(Cl)c(NC(=S)NC2CCCCC2)cc1Oc1ccc(Cl)cc1Cl [Example 12, 1-[2-Chloro-5-(2,4-dichloro-phenoxy)-4-hydroxy-phenyl]-3-cyclohexyl-thiourea]	–	–	2000 (≈ 4490 µM)	31300 (≈ 70200 µM)	–
O=[N+]([O-])c1ccc(NC(=S)Nc2cc(Oc3ccc(Cl)cc3Cl)c(O)cc2Cl)cc1 [Example 13, 1-[2-Chloro-5-(2,4-dichloro-phenoxy)-4-hydroxy-phenyl]-3-(4-nitro-phenyl)-thiourea]	–	–	1000 (≈ 2060 µM)	15600 (≈ 32200 µM)	–
O=C(Nc1cc(C(F)(F)F)cc(C(F)(F)F)c1)Nc1cc(Oc2ccc(Cl)cc2Cl)c(O)cc1Cl [Example 15, 1-(3,5-Bis-trifluoromethyl-phenyl)-3-[2-chloro-5-(2,4-dichloro-phenoxy)-4-hydroxy-phenyl]-urea]	–	800 (≈ 1430 µM)	4000 (≈ 7150 µM)	–	100 (≈ 179 µM)
Oc1cc(Cl)c(NC(=S)Nc2cc(C(F)(F)F)cc(C(F)(F)F)c2)cc1Oc1ccc(Cl)cc1Cl [Example 16, 1-(3,5-Bis-trifluoromethyl-phenyl)-3-[2-chloro-5-(2,4-dichloro-phenoxy)-4-hydroxy-phenyl]-thiourea]	–	200 (≈ 347 µM)	500 (≈ 868 µM)	–	100 (≈ 174 µM)
Oc1cc(Cl)c(-n2cccc2)cc1Oc1ccc(Cl)cc1Cl [Example 17, 5-Chloro-2-(2,4-dichloro-phenoxy)-4-pyrrol-1-yl-phenol]	86 to 87	100 (≈ 282 µM)	250 (≈ 705 µM)	–	50 (≈ 141 µM)
N#Cc1ccccc1Oc1cc(-n2cccc2)ccc1O [Example 18, 2-(2-Hydroxy-5-pyrrol-1-yl-phenoxy)-benzonitrile]	–	> 25000	4000 (≈ 14500 µM)	4000 (≈ 14500 µM)	> 25000
O=C(Nc1cc(Oc2ccc(Cl)cc2Cl)c(O)cc1Cl)c1ccco1 [Example 20, Furan-2-carboxylic acid [2-chloro-5-(2,4-dichloro-phenoxy)-4-hydroxy-phenyl]-amide]	–	> 25000	4000 (≈ 10000 µM)	2000 (≈ 5020 µM)	> 25000
Cc1nnsc1C(=O)Nc1cc(Oc2ccc(Cl)cc2Cl)c(O)cc1Cl [Example 21, 4-Methyl-[1,2,3]thiadiazole-5-carboxylic acid [2-chloro-5-(2,4-dichloro-phenoxy)-4-hydroxy-phenyl]-amide]	–	–	4000 (≈ 9290 µM)	4000 (≈ 9290 µM)	–
Cc1cc(C(=O)Nc2cc(Oc3ccc(Cl)cc3Cl)c(O)cc2Cl)no1 [Example 22, 5-Methyl-isoxazole-3-carboxylic acid [2-chloro-5-(2,4-dichloro-phenoxy)-4-hydroxy-phenyl]-amide]	–	–	2000 (≈ 4840 µM)	500 (≈ 1210 µM)	–
CC(=O)Nc1nc(C)c(S(=O)(=O)Nc2cc(Oc3ccc(Cl)cc3Cl)c(O)cc2Cl)s1 [Example 23, N-{5-[2-Chloro-5-(2,4-dichloro-phenoxy)-4-hydroxy-phenylsulfamoyl]-4-methyl-thiazol-2-yl}-acetamide]	–	–	4000 (≈ 7650 µM)	15700 (≈ 30000 µM)	–
Cc1cc(O)c(Oc2ccccc2C#N)cc1-c1cccs1 [Example 26, 2-(2-Hydroxy-4-methyl-5-thiophen-2-yl-phenoxy)-benzonitrile]	–	12500 (≈ 40700 µM)	4000 (≈ 13000 µM)	500 (≈ 1630 µM)	12500 (≈ 40700 µM)
Cc1cc(O)c(Oc2ccccc2C#N)cc1-c1ccsc1 [Example 27, 2-(2-Hydroxy-4-methyl-5-thiophen-3-yl-phenoxy)-benzonitrile]	–	1600 (≈ 5210 µM)	6200 (≈ 20200 µM)	> 25000	800 (≈ 2600 µM)
Cc1cc(O)c(Oc2ccccc2C#N)cc1-c1ccco1 [Example 28, 2-(5-Furan-2-yl-2-hydroxy-4-methyl-phenoxy)-benzonitrile]	–	800 (≈ 2750 µM)	2000 (≈ 6870 µM)	500 (≈ 1720 µM)	1600 (≈ 5490 µM)
Cc1cc(O)c(Oc2ccccc2C#N)cc1-n1cccc1 [Example 29, 2-(2-Hydroxy-4-methyl-5-pyrrol-1-yl-phenoxy)-benzonitrile]	158 to 160	–	62500 (≈ 215000 µM)	500 (≈ 1720 µM)	4000 (≈ 13800 µM)
Cc1cc(O)c(Oc2ccccc2C#N)cc1N1CCOCC1 [Example 31, 2-(2-Hydroxy-4-methyl-5-morpholin-4-yl-phenoxy)-benzonitrile]	–	6200 (≈ 20000 µM)	7900 (≈ 25500 µM)	4000 (≈ 12900 µM)	3100 (≈ 9990 µM)
Oc1cc(Cl)c(-c2nnn[nH]2)cc1Oc1ccc(Cl)cc1Cl [Example 33, 5-Chloro-2-(2,4-dichloro-phenoxy)-4-(1H-tetrazol-5-yl)-phenol]	174 to 180	12500 (≈ 35000 µM)	200 (≈ 559 µM)	–	6200 (≈ 17300 µM)
N/C(=N/O)c1cc(Oc2ccc(Cl)cc2Cl)c(O)cc1Cl [Example 34, 2-Chloro-5-(2,4-dichloro-phenoxy)-4,N-dihydroxy-benzamidine]	137	200 (≈ 575 µM)	100 (≈ 288 µM)	–	100 (≈ 288 µM)
CCOC(=O)c1nc(-c2cc(Oc3ccc(Cl)cc3Cl)c(O)cc2Cl)no1 [Example 35, 3-[2-Chloro-5-(2,4-dichloro-phenoxy)-4-hydroxy-phenyl][1,2,4]oxadiazole-5-carboxylic acid ethyl ester]	130	100 (≈ 233 µM)	200 (≈ 466 µM)	–	100 (≈ 233 µM)
O=C(O)c1nc(-c2cc(Oc3ccc(Cl)cc3Cl)c(O)cc2Cl)no1 [Example 36, 3-[2-Chloro-5-(2,4-dichloro-phenoxy)-4-hydroxy-phenyl]-[1,2,4]oxadiazole-5-carboxylic acid]	115	50 (≈ 125 µM)	200 (≈ 498 µM)	–	100 (≈ 249 µM)
